Legend:
AMBEL (Ragweed, Common) [1] = assay: Postemergence herbicidal evaluation; type: in vivo, Ambrosia artemisifolia; settings: postemergence
In short: (§1)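 Each compound, dispersed in an acetone/water mix (50/50) carrying 0.5% TWEEN 20, is nozzle-sprayed at 40 psi on approximately two-week-old seedlings at about 0.0156–0.500 kg/ha. Plants are assessed 4–5 weeks afterward on a 0–9 scale relative to control; duplicate tests are averaged.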

[2] = system: IPOHE (Morningglory, Ivyleaf); assay: Postemergence herbicidal evaluation; type: in vivo, Ipomoea hederacea; settings: postemergence
In short: as §1

[3] = system: GLXMAW (Soybean, Williams); assay: Postemergence herbicidal evaluation; type: in vivo, Glycine max, (L.) Merr. cv Williams; settings: postemergence
In short: as §1

ZEAMX (Corn, Field) = assay: Postemergence herbicidal evaluation; type: in vivo, Zea mays; settings: postemergence
In short: as §1

ABUTH (Velvetleaf) = assay: Preemergence herbicidal evaluation; type: in vivo, Abutilon theophrasti; settings: rated 4-5 weeks after treatment
In short: (§2)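 Visual 0-9 rating vs control (stand, vigor, malformation, size, chlorosis, overall appearance), scored 4-5 wk after spraying. Seeded soil cups were treated preemergence with compound in aqueous acetone, ~0.0156-0.500 kg/ha equivalent.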

AMBEL (Ragweed, Common) [4] = assay: Preemergence herbicidal evaluation; type: in vivo, Ambrosia artemisifolia; settings: rated 4-5 weeks after treatment
In short: as §2

CASOB (Sicklepod) = assay: Preemergence herbicidal evaluation; type: in vivo, Cassia obtusifolia; settings: rated 4-5 weeks after treatment
In short: as §2

GALAP (Galium) = assay: Preemergence herbicidal evaluation; type: in vivo, Galium aparine; settings: rated 4-5 weeks after treatment
In short: as §2

ECHCG (Barnyardgrass) = assay: Preemergence herbicidal evaluation; type: in vivo, Echinochloa crus-galli; settings: rated 4-5 weeks after treatment
In short: as §2

SETVI (Foxtail, Green) = assay: Preemergence herbicidal evaluation; type: in vivo, Setaria viridis; settings: rated 4-5 weeks after treatment
In short: as §2

[5] = system: GLXMAW (Soybean, Williams); assay: Preemergence herbicidal evaluation; type: in vivo, Glycine max, (L.) Merr. cv Williams; settings: rated 4-5 weeks after treatment
In short: as §2

CYPSE (Flatsedge) = assay: Preemergence weed control under flooded paddy conditions; type: in vivo, Cyperus serotinus; settings: rated 3-4 weeks after treatment
In short: (§3)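 Flooded-pot preemergence screen with silt loam and seeds in the upper 0.5 cm. Dose about 0.0313 to 0.500 kg/ha, delivered into flood water; visual 0-9 score after 3 to 4 weeks.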

[6] = system: SAGPY (Arrowhead (Pygmaea)); assay: as above; type: in vivo, Sagittaria pygmaea; settings: rated 3-4 weeks after treatment
In short: as §3

[7] = rate 0.0156 kg/ha, rating scale 0-9
[8] = rate 0.0313 kg/ha, rating scale 0-9
[9] = rate 0.0625 kg/ha, rating scale 0-9
[10] = rate 0.1250 kg/ha, rating scale 0-9
[11] = rate 0.2500 kg/ha, rating scale 0-9

For C=C1SC(=Nc2cc(-n3c(=O)cc(C(F)(F)F)n(C)c3=O)c(F)cc2Cl)N(CC(=O)OCC)C1=O [Compound 154], the “Herbicidal rating AMBEL” value (AMBEL (Ragweed, Common) [1]; rate 0.0156 kg/ha) was 3.0, the “Herbicidal rating AMBEL” value (AMBEL (Ragweed, Common) [1]; rate 0.0313 kg/ha) was 9.0 and the “Herbicidal rating AMBEL” value (AMBEL (Ragweed, Common) [1]; rate 0.0625 kg/ha) was 9.0. For the same molecule, the “Herbicidal rating IPOHE” value ([2]; rate 0.0156 kg/ha) was 9.0, the “Herbicidal rating IPOHE” value ([2]; rate 0.0313 kg/ha) was 9.0 and the “Herbicidal rating IPOHE” value ([2]; rate 0.0625 kg/ha) was 9.0. For the same molecule, the “Herbicidal rating GLXMAW” value ([3]; rate 0.0156 kg/ha) was 5.5, the “Herbicidal rating GLXMAW” value ([3]; rate 0.0313 kg/ha) was 6.0 and the “Herbicidal rating GLXMAW” value ([3]; rate 0.0625 kg/ha) was 7.5. For the same molecule, the “Herbicidal rating ZEAMX” value (ZEAMX (Corn, Field); rate 0.0156 kg/ha) was 4.0, the “Herbicidal rating ZEAMX” value (ZEAMX (Corn, Field); rate 0.0313 kg/ha) was 4.0 and the “Herbicidal rating ZEAMX” value (ZEAMX (Corn, Field); rate 0.0625 kg/ha) was 5.0. The “Preemergence herbicidal rating ABUTH” value (ABUTH (Velvetleaf); [7]) was 9.0, the “Preemergence herbicidal rating ABUTH” value (ABUTH (Velvetleaf); [8]) was 9.0 and the “Preemergence herbicidal rating ABUTH” value (ABUTH (Velvetleaf); [9]) was 9.0. For the same molecule, the “Preemergence herbicidal rating ABUTH” value (ABUTH (Velvetleaf); [10]) was 9.0, the “Preemergence herbicidal rating ABUTH” value (ABUTH (Velvetleaf); [11]) was 9.0 and the “Preemergence herbicidal rating AMBEL” value (AMBEL (Ragweed, Common) [4]; [7]) was 3.0. For the same molecule, the “Preemergence herbicidal rating AMBEL” value (AMBEL (Ragweed, Common) [4]; [8]) was 5.0, the “Preemergence herbicidal rating AMBEL” value (AMBEL (Ragweed, Common) [4]; [9]) was 9.0 and the “Preemergence herbicidal rating AMBEL” value (AMBEL (Ragweed, Common) [4]; [10]) was 9.0. For the same molecule, the “Preemergence herbicidal rating AMBEL” value (AMBEL (Ragweed, Common) [4]; [11]) was 9.0, the “Preemergence herbicidal rating CASOB” value (CASOB (Sicklepod); [7]) was 0.0 and the “Preemergence herbicidal rating CASOB” value (CASOB (Sicklepod); [8]) was 0.0. For the same molecule, the “Preemergence herbicidal rating CASOB” value (CASOB (Sicklepod); [9]) was 9.0, the “Preemergence herbicidal rating CASOB” value (CASOB (Sicklepod); [10]) was 9.0 and the “Preemergence herbicidal rating CASOB” value (CASOB (Sicklepod); [11]) was 9.0. The “Preemergence herbicidal rating GALAP” value (GALAP (Galium); [7]) was 0.0, the “Preemergence herbicidal rating GALAP” value (GALAP (Galium); [8]) was 0.0 and the “Preemergence herbicidal rating GALAP” value (GALAP (Galium); [9]) was 4.0. The “Preemergence herbicidal rating GALAP” value (GALAP (Galium); [10]) was 9.0, the “Preemergence herbicidal rating GALAP” value (GALAP (Galium); [11]) was 9.0 and the “Preemergence herbicidal rating ECHCG” value (ECHCG (Barnyardgrass); [7]) was 0.0. For the same molecule, the “Preemergence herbicidal rating ECHCG” value (ECHCG (Barnyardgrass); [8]) was 4.0, the “Preemergence herbicidal rating ECHCG” value (ECHCG (Barnyardgrass); [9]) was 9.0 and the “Preemergence herbicidal rating ECHCG” value (ECHCG (Barnyardgrass); [10]) was 9.0. The “Preemergence herbicidal rating ECHCG” value (ECHCG (Barnyardgrass); [11]) was 9.0, the “Preemergence herbicidal rating SETVI” value (SETVI (Foxtail, Green); [7]) was 2.0 and the “Preemergence herbicidal rating SETVI” value (SETVI (Foxtail, Green); [8]) was 7.0. The “Preemergence herbicidal rating SETVI” value (SETVI (Foxtail, Green); [9]) was 9.0, the “Preemergence herbicidal rating SETVI” value (SETVI (Foxtail, Green); [10]) was 9.0 and the “Preemergence herbicidal rating SETVI” value (SETVI (Foxtail, Green); [11]) was 9.0. The “Preemergence herbicidal rating GLXMAW” value [5, 7] was 0.0, the “Preemergence herbicidal rating GLXMAW” value [5, 8] was 2.0 and the “Preemergence herbicidal rating GLXMAW” value [5, 9] was 5.0. The “Preemergence herbicidal rating GLXMAW” value [5, 11] was 8.0, the “herbicidal effect rating, CYPSE” value (CYPSE (Flatsedge); 0.0313 kg/ha) was 4.0 and the “herbicidal effect rating, CYPSE” value (CYPSE (Flatsedge); 0.0625 kg/ha) was 6.0. The “herbicidal effect rating, CYPSE” value (CYPSE (Flatsedge); 0.1250 kg/ha) was 9.0, the “herbicidal effect rating, CYPSE” value (CYPSE (Flatsedge); 0.2500 kg/ha) was 9.0 and the “herbicidal effect rating, SAGPY” value ([6]; 0.0313 kg/ha) was 2.0. The “herbicidal effect rating, SAGPY” value ([6]; 0.0625 kg/ha) was 4.0, the “herbicidal effect rating, SAGPY” value ([6]; 0.1250 kg/ha) was 5.0 and the “herbicidal effect rating, SAGPY” value ([6]; 0.2500 kg/ha) was 6.0.

In the case of Cn1c(C(F)(F)F)cc(=O)n(-c2cc(N=C3SCC(=O)N3CC(=O)OC3CCCC3)c(Cl)cc2F)c1=O [Compound 120, Cyclopentyl 2-{{2-chloro-5-[3,6-dihydro-3-methyl-2,6-dioxo-4-(trifluoromethyl)-1(2H)-pyrimidinyl]-4-fluorophenyl}imino}-4-oxo-3-thiazolidineacetate], the “Herbicidal rating AMBEL” value (AMBEL (Ragweed, Common) [1]; rate 0.0156 kg/ha) is reported as 9.0, the “Herbicidal rating AMBEL” value (AMBEL (Ragweed, Common) [1]; rate 0.0313 kg/ha) is reported as 9.0 and the “Herbicidal rating AMBEL” value (AMBEL (Ragweed, Common) [1]; rate 0.0625 kg/ha) is reported as 9.0. The “Herbicidal rating IPOHE” value ([2]; rate 0.0156 kg/ha) was 9.0, the “Herbicidal rating IPOHE” value ([2]; rate 0.0313 kg/ha) was 9.0 and the “Herbicidal rating IPOHE” value ([2]; rate 0.0625 kg/ha) was 9.0. For the same molecule, the “Herbicidal rating GLXMAW” value ([3]; rate 0.0156 kg/ha) was 7.5, the “Herbicidal rating GLXMAW” value ([3]; rate 0.0313 kg/ha) was 9.0 and the “Herbicidal rating GLXMAW” value ([3]; rate 0.0625 kg/ha) was 9.0. The “Herbicidal rating ZEAMX” value (ZEAMX (Corn, Field); rate 0.0156 kg/ha) was 6.0, the “Herbicidal rating ZEAMX” value (ZEAMX (Corn, Field); rate 0.0313 kg/ha) was 7.0 and the “Herbicidal rating ZEAMX” value (ZEAMX (Corn, Field); rate 0.0625 kg/ha) was 8.0. For the same molecule, the “Preemergence herbicidal rating ABUTH” value (ABUTH (Velvetleaf); rate 0.0156 kg/ha) was 0.0, the “Preemergence herbicidal rating ABUTH” value (ABUTH (Velvetleaf); rate 0.0313 kg/ha) was 9.0 and the “Preemergence herbicidal rating ABUTH” value (ABUTH (Velvetleaf); rate 0.0625 kg/ha) was 9.0. For the same molecule, the “Preemergence herbicidal rating ABUTH” value (ABUTH (Velvetleaf); rate 0.1250 kg/ha) was 9.0, the “Preemergence herbicidal rating ABUTH” value (ABUTH (Velvetleaf); rate 0.2500 kg/ha) was 9.0 and the “Preemergence herbicidal rating AMBEL” value (AMBEL (Ragweed, Common) [4]; rate 0.0156 kg/ha) was 0.0. The “Preemergence herbicidal rating AMBEL” value (AMBEL (Ragweed, Common) [4]; rate 0.0313 kg/ha) was 0.0, the “Preemergence herbicidal rating AMBEL” value (AMBEL (Ragweed, Common) [4]; rate 0.0625 kg/ha) was 3.0 and the “Preemergence herbicidal rating AMBEL” value (AMBEL (Ragweed, Common) [4]; rate 0.1250 kg/ha) was 4.0. The “Preemergence herbicidal rating AMBEL” value (AMBEL (Ragweed, Common) [4]; rate 0.2500 kg/ha) was 4.0, the “Preemergence herbicidal rating CASOB” value (CASOB (Sicklepod); rate 0.0156 kg/ha) was 0.0 and the “Preemergence herbicidal rating CASOB” value (CASOB (Sicklepod); rate 0.0313 kg/ha) was 0.0. The “Preemergence herbicidal rating CASOB” value (CASOB (Sicklepod); rate 0.0625 kg/ha) was 3.0, the “Preemergence herbicidal rating CASOB” value (CASOB (Sicklepod); rate 0.1250 kg/ha) was 4.0 and the “Preemergence herbicidal rating CASOB” value (CASOB (Sicklepod); rate 0.2500 kg/ha) was 4.0. For the same molecule, the “Preemergence herbicidal rating GALAP” value (GALAP (Galium); rate 0.0156 kg/ha) was 0.0, the “Preemergence herbicidal rating GALAP” value (GALAP (Galium); rate 0.0313 kg/ha) was 0.0 and the “Preemergence herbicidal rating GALAP” value (GALAP (Galium); rate 0.0625 kg/ha) was 0.0. The “Preemergence herbicidal rating GALAP” value (GALAP (Galium); rate 0.1250 kg/ha) was 0.0, the “Preemergence herbicidal rating GALAP” value (GALAP (Galium); rate 0.2500 kg/ha) was 0.0 and the “Preemergence herbicidal rating ECHCG” value (ECHCG (Barnyardgrass); rate 0.0156 kg/ha) was 0.0. For the same molecule, the “Preemergence herbicidal rating ECHCG” value (ECHCG (Barnyardgrass); rate 0.0313 kg/ha) was 0.0, the “Preemergence herbicidal rating ECHCG” value (ECHCG (Barnyardgrass); rate 0.0625 kg/ha) was 0.0 and the “Preemergence herbicidal rating ECHCG” value (ECHCG (Barnyardgrass); rate 0.1250 kg/ha) was 0.0. The “Preemergence herbicidal rating ECHCG” value (ECHCG (Barnyardgrass); rate 0.2500 kg/ha) was 2.0, the “Preemergence herbicidal rating SETVI” value (SETVI (Foxtail, Green); rate 0.0156 kg/ha) was 0.0 and the “Preemergence herbicidal rating SETVI” value (SETVI (Foxtail, Green); rate 0.0313 kg/ha) was 0.0. For the same molecule, the “Preemergence herbicidal rating SETVI” value (SETVI (Foxtail, Green); rate 0.0625 kg/ha) was 9.0, the “Preemergence herbicidal rating SETVI” value (SETVI (Foxtail, Green); rate 0.1250 kg/ha) was 9.0 and the “Preemergence herbicidal rating SETVI” value (SETVI (Foxtail, Green); rate 0.2500 kg/ha) was 9.0. For the same molecule, the “Preemergence herbicidal rating GLXMAW” value ([5]; rate 0.0156 kg/ha) was 0.0, the “Preemergence herbicidal rating GLXMAW” value ([5]; rate 0.0313 kg/ha) was 0.0 and the “Preemergence herbicidal rating GLXMAW” value ([5]; rate 0.0625 kg/ha) was 0.0. For the same molecule, the “Preemergence herbicidal rating GLXMAW” value ([5]; rate 0.1250 kg/ha) was 0.0, the “Preemergence herbicidal rating GLXMAW” value ([5]; rate 0.2500 kg/ha) was 3.0 and the “herbicidal effect rating, CYPSE” value (CYPSE (Flatsedge); 0.0313 kg/ha) was 0.0. For the same molecule, the “herbicidal effect rating, CYPSE” value (CYPSE (Flatsedge); 0.0625 kg/ha) was 0.0, the “herbicidal effect rating, CYPSE” value (CYPSE (Flatsedge); 0.1250 kg/ha) was 0.0 and the “herbicidal effect rating, CYPSE” value (CYPSE (Flatsedge); 0.2500 kg/ha) was 3.5. The “herbicidal effect rating, SAGPY” value ([6]; 0.0313 kg/ha) was 0.0, the “herbicidal effect rating, SAGPY” value ([6]; 0.0625 kg/ha) was 0.0 and the “herbicidal effect rating, SAGPY” value ([6]; 0.1250 kg/ha) was 2.0. For the same molecule, the “herbicidal effect rating, SAGPY” value ([6]; 0.2500 kg/ha) was 7.5.

Source: patent US20020137929A1, “1 - (3-heterocyclylphenyl) isothiourea, -isourea, -guanidine and -amidine herbicidal agents” (Intellectual Property Department, BASF Aktiengesellschaft, priority 1998, published 2002)
